The source of these data is PubChem BioAssay (NCI).

Structures are written as SMILES. Where “and” joins values, the source holds several entries; their conditions need not be identical. Identical values can stand only once.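 Compound exposure: 48 hours, 5 concentrations, 96-well plates. GI50 marks 50% less growth. TGI is the concentration that stops growth completely.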 Where a SMILES comes first, the peptide text is derived from it.

What all share (assay): inhibition of tumour cell growth, NCI panel, 48 h
Experiment [1] concerns IGROV1 ovarian.
For experiment [2], the system named is MDA-N.
Experiment [3] relates to HT29 colon.
In experiment [4] the test system is HS 578T breast.
The test system of experiment [5] is LOX IMVI melanoma.
For experiment [6], the system named is SW-620 colon.
Experiment [7] concerns SK-OV-3 ovarian.
Experiment [8] deals with 786-0 renal.
Experiment [9] has as its system NCI-H522 lung.
Experiment [10] relates to HOP-18 NSCLC.
The subject of experiment [11] is DLD-1 colon.
In experiment [12] the test system is DMS 273 small cell lung.
The subject of experiment [13] is M19-MEL melanoma.

As for `COC(Cc1cc(C(O)(c2ccc(C(C)(C)C)cc2)c2cc(CC(OC)(c3cc(C(OC)(c4ccc(C(C)(C)C)cc4)c4ccc(C(C)(C)C)cc4)c(C)cc3C)c3cc(C(OC)(c4ccc(C(C)(C)C)cc4)c4ccc(C(C)(C)C)cc4)c(C)cc3C)c(C)cc2C)c(C)cc1C)(c1cc(C(OC)(c2ccc(C(C)(C)C)cc2)c2ccc(C(C)(C)C)cc2)c(C)cc1C)c1cc(C(OC)(c2ccc(C(C)(C)C)cc2)c2ccc(C(C)(C)C)cc2)c(C)cc1C`, the TGI in [1], in experiment [2], in experiment [3], in experiment [4], in experiment [5] and in experiment [6] was greater than 75 µM throughout. The TGI in experiment [7] is greater than 75 µM.
In the case of `CC(C)(C)c1ccc(NS(=O)(=O)c2ccc(N)cc2)cc1`, the TGI came out at 45.2 µM in experiment [1]; 54.7 µM in experiment [2]; 35.3 µM in experiment [3]; 52.1 µM in experiment [8]; 59.3 µM in experiment [4]; 33.1 µM in [5]. In addition, the results for the TGI in experiment [6], in [7] and in experiment [9] were 69 µM, 12.5 µM and 38.7 µM, respectively.
With `Cc1cc(C)n(CN(CCCCO)Cn2nc(C)cc2C)n1`, the TGI in [1] is 73.4 µM; in experiment [2] it was 35.1 µM; in experiment [3], 37.1 µM; in experiment [8] it was 36.7 µM; in experiment [4], greater than 100 µM; in experiment [5] it was 51.2 µM. For the same molecule, the TGI in experiment [6] was 63 µM; in experiment [7], greater than 100 µM; in experiment [9], 48.1 µM.
Turning to `COc1ccc2c(c1)C(=O)c1c-2n(CCCN=[N+]=[N-])c(=O)c2cc([N+](=O)[O-])ccc12`, the GI50 in experiment [3] is 2.82 µM; in [4], 16.2 µM; in experiment [5], 0.0707 µM and 0.177 µM; in [6] it was less than 0.001 µM; in [7], 7.14 µM; in experiment [9] it was less than 0.001 µM. In addition, the TGI in experiment [3] was greater than 100 µM; in [8], 0.708 µM; in experiment [4] it was greater than 100 µM; in [5], 0.737 µM; in experiment [6] it was 0.783 µM; in experiment [7] it was 28.1 µM. This molecule also gave a TGI in [9] of 0.657 µM.
Regarding `O=S(=O)(O)c1ccc(N=Nc2ccc(N=Nc3c(O)ccc4ccc(S(=O)(=O)O)cc34)cc2)cc1`, the TGI in experiment [1], in [2], in experiment [3], in experiment [8], in [4] and in [6] was greater than 100 µM throughout. Further, the TGI in [7] and in experiment [9] was greater than 100 µM in each case.
Consider `O=C(N/N=C\c1ccc(N(CCCl)CCCl)cc1)c1cccnc1`, for which the GI50 is greater than 100 µM in [1]; greater than 100 µM in experiment [3]; 65.5 µM in [4]; 21.3 µM in [5]; greater than 100 µM in experiment [6]; 29 µM in experiment [9]. The TGI in [1], in experiment [3], in experiment [4], in experiment [5], in [6] and in experiment [9] was greater than 100 µM throughout.
With `CCOC(=O)NC(=O)c1cn(CCN(CCO)C(=O)NCCCCCCNC(=O)N(CCO)CCn2cc(C(=O)NC(=O)OCC)c(=O)[nH]c2=O)c(=O)[nH]c1=O`, the TGI in [1], in [3], in experiment [10], in experiment [5], in experiment [6] and in [11] was greater than 100 µM each time. Besides, the TGI in experiment [12], in experiment [9] and in experiment [13] was greater than 100 µM throughout.
As to `CCCC[n+]1ccn(-c2nc3ccccc3n2C)c1`, the TGI in experiment [1], in [3], in experiment [10], in experiment [5], in experiment [6] and in [11] was greater than 100 µM throughout. The TGI in [12], in experiment [7] and in experiment [9] was greater than 100 µM in each case.
On to `C/C=C(\C)C(=O)OC1C2C(C)=CC(=O)C(O)C2(C)C2C3(O)OCC24C1OC(=O)C(OC(C)=O)C4C(C)C3O` (centres undefined), for which the TGI in experiment [1] came to 0.16 µM; in experiment [3] it was 0.382 µM; in [10], 0.792 µM; in [5], 0.375 µM; in experiment [6], 0.525 µM; in experiment [11], 0.078 µM. Further, the figures for the TGI in [12], in [7] and in experiment [13] were 0.0382 µM, 1.12 µM and 0.0455 µM, respectively.
Consider `CC1=C/C(=N\NS(=O)(=O)c2ccc([N+](=O)[O-])cc2)CC(C)(C)C1`, for which the TGI in [1], in experiment [2], in experiment [8], in experiment [5], in experiment [6] and in experiment [7] was greater than 100 µM each time. Also, the TGI in [9] was greater than 100 µM.
On to `COc1cc(/C=C2\C(=O)Nc3ccc(Cl)cc32)cc(OC)c1OC`, for which the GI50 in [1] was 4.51 µM; in experiment [3], 6.71 µM; in experiment [4], 16.5 µM; in experiment [5], 21.9 µM; in experiment [6], 29.9 µM; in experiment [7], 13.4 µM. Also, the GI50 in experiment [9] was 13.7 µM. Moreover, the TGI was greater than 100 µM in experiment [1]; greater than 100 µM in experiment [3]; greater than 100 µM in [4]; greater than 100 µM in [5]; greater than 100 µM in experiment [6]; 33.8 µM in [7]. For the same molecule, the TGI in experiment [9] is greater than 100 µM.
As to `O=C([O-])c1ccccc1Nc1ccccc1C(=O)[O-].[OH3+].[Zn+2]`, the TGI in experiment [1] was 18.8 µM; in experiment [3], greater than 100 µM; in experiment [10], greater than 75.9 µM; in experiment [8], 57.7 µM; in experiment [5] it was 44.9 µM; in experiment [6], greater than 54.8 µM. In addition, the TGI is greater than 83.7 µM in experiment [11]; 29.2 µM in experiment [12]; 39 µM in [7]; 18.2 µM in experiment [9]; 50.1 µM in experiment [13].
For `COc1cc2c(c(OC)c1OC)-c1ccc(OC)c(=O)cc1C(NC(=O)CCCCCNc1ccc(N=[N+]=[N-])cc1[N+](=O)[O-])CC2` (centres undefined), the TGI in experiment [1] was greater than 31.6 µM; in experiment [2] it was less than 0.01 µM; in experiment [3], less than 0.01 µM; in experiment [4], 4.67 µM; in experiment [5], 9.55 µM; in [6], greater than 31.6 µM. In addition, the TGI in experiment [7] came out at 7.17 µM.
Take `N#CC1(C#N)C(=O)c2ccncc2C1=O`: the TGI in experiment [1], in experiment [2], in experiment [3], in experiment [4], in [6] and in [7] was greater than 100 µM each time. In addition, the TGI in experiment [9] was greater than 100 µM.
As to `CCCCC1Nc2ccccc2-c2ccnc(Cl)c21` (centres undefined), the TGI in experiment [1] was 47.9 µM; in [2], 54.9 µM; in experiment [3], 47.6 µM; in experiment [8] it was 45.2 µM; in [4], 32.3 µM; in experiment [5], 34.7 µM. Besides, the TGI in experiment [6] was greater than 100 µM; in [7], 55.7 µM; in experiment [9], 29.6 µM.
For `Brc1ccc2nc(-c3cccs3)nc(N3CCN(c4ccccc4)CC3)c2c1`, the TGI in experiment [1], in experiment [3], in experiment [8], in experiment [4], in [5] and in experiment [6] was greater than 100 µM in each case. Moreover, the TGI in experiment [7] and in experiment [9] was greater than 100 µM each time.
Turning to `N=C1c2ccccc2C(=O)c2c(NCCNCCO)ccc(O)c21`, the TGI is 46.8 µM in [1]; greater than 100 µM in experiment [3]; 54.8 µM in experiment [10]; greater than 38.7 µM in experiment [8]; 15.6 µM in experiment [5]; 15.8 µM in experiment [6]. The TGI was 22.3 µM in experiment [11]; 18.9 µM in experiment [12]; 50.2 µM in experiment [7]; 13.3 µM in [9]; 17.3 µM in experiment [13].
With `COC1=CC(c2ccc[nH]2)=N/C1=C\c1[nH]c(C)c(CC(=O)NCc2ccccc2)c1C`, in experiment [7], the GI50 is 1.87 µM and the TGI was found to be 3.39 µM.
On to `CC(=O)NC(CS)C(=O)NC(CO)C(=O)NC(CO)C(=O)NC(Cc1c[nH]c2ccccc12)C(=O)N1CCCC1C(=O)NC(CO)C(=O)NC(Cc1c[nH]c2ccccc12)C(=O)NC(Cc1c[nH]cn1)C(=O)NC(CO)C(=O)NC(Cc1c[nH]c2ccccc12)C(=O)NCC(=O)NCC(=O)NC(C)C(=O)NC(CCC(N)=O)C(=O)NC(CCCCN)C(=O)NC(C)C(=O)NC(CCCNC(=N)N)C(=O)NC(CCCCN)C(N)=O` (centres undefined) (Ac-CSSWPSWHSWGGAQKARK-NH2; configuration not given here), for which the TGI in experiment [1] is greater than 50 µM; in experiment [2], greater than 50 µM; in experiment [3], greater than 50 µM; in experiment [8], 19.5 µM; in experiment [4], greater than 50 µM; in [5], greater than 50 µM. The TGI in [6], in [7] and in experiment [9] was greater than 50 µM each time.
On to `COc1cc(-c2n/c(=C\c3c(O)[nH]c4ccccc34)cc3c2=Nc2ccccc2-3)ccc1F`, for which the GI50 in experiment [1] was 10.3 µM; in experiment [3], 4.02 µM; in experiment [4], 19.7 µM; in [5], 9.09 µM; in [6], 4.15 µM; in experiment [7] it was 17.1 µM. The GI50 in experiment [9] was 8.79 µM. Also, the TGI in experiment [1] was 48.9 µM; in experiment [3], 16.1 µM; in experiment [4] it was greater than 100 µM; in experiment [5], 59.7 µM; in experiment [6] it was 86.7 µM; in experiment [7] it was 43.5 µM. The TGI in experiment [9] was 51.6 µM.
